Assay results as given in ChEMBL document CHEMBL3991601, “The target landscape of clinical kinase drugs” (Science, 2017).
Calls of active or inactive are those of the source. Rule as the data show it, for most assays here: actives have a measured Kd and inactives only a lower limit.

Columns and labels:
[1] = target: T1, Serine/threonine-protein kinase A-Raf (Homo sapiens, UniProt P10398)
T1 sequence (P10398 whole entry): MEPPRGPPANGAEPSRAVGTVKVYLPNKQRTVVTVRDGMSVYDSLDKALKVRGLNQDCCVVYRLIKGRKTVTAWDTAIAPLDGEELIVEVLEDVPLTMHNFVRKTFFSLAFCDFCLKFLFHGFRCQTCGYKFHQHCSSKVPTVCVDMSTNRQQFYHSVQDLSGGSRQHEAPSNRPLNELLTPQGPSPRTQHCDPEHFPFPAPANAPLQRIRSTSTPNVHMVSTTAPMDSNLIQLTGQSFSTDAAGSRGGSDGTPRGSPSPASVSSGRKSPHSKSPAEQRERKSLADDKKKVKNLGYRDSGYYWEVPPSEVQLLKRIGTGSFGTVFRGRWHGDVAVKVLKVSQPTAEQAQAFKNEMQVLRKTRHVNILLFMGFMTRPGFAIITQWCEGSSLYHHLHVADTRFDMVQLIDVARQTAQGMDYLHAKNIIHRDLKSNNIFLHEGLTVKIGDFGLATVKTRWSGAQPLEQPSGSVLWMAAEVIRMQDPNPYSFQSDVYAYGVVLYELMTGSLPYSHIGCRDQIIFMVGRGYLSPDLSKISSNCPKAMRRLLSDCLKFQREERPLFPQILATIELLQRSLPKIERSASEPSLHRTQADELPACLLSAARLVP

[2] = target: STE20-like serine/threonine-protein kinase (Homo sapiens, UniProt Q9H2G2)
Chain of STE20-like serine/threonine-protein kinase (Q9H2G2 whole entry): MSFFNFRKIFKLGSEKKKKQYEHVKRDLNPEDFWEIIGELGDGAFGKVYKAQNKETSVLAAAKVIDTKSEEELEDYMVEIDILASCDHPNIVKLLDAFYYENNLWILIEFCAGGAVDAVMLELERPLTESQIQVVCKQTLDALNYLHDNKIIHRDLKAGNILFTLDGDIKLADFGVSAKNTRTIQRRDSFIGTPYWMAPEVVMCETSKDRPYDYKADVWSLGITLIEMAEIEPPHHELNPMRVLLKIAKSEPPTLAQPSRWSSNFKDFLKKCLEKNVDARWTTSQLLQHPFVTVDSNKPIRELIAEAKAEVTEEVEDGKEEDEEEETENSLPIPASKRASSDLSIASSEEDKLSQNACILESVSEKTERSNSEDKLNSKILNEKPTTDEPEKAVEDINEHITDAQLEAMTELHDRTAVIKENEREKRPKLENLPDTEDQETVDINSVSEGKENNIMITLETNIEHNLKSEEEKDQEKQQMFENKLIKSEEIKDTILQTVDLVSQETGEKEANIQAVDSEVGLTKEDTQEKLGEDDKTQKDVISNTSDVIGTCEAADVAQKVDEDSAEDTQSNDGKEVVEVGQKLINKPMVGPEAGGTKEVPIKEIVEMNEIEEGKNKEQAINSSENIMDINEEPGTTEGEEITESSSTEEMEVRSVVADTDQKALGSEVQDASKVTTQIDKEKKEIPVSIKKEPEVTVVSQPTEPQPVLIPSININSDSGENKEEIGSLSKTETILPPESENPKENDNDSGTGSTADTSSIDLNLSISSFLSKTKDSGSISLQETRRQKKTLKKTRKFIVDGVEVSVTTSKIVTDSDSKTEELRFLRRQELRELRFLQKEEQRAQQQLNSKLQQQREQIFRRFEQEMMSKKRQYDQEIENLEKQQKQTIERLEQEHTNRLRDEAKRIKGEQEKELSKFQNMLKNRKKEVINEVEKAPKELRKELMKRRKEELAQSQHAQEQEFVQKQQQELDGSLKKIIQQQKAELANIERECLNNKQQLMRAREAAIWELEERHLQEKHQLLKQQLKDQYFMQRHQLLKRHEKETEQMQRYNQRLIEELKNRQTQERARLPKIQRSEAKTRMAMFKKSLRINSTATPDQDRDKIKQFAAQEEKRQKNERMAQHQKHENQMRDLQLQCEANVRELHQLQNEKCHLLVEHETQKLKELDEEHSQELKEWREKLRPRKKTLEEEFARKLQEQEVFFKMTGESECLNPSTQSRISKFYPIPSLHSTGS

Activin receptor type-1 = target: T2, Activin receptor type-1 (Homo sapiens, UniProt Q04771)
T2 sequence (Q04771 whole entry): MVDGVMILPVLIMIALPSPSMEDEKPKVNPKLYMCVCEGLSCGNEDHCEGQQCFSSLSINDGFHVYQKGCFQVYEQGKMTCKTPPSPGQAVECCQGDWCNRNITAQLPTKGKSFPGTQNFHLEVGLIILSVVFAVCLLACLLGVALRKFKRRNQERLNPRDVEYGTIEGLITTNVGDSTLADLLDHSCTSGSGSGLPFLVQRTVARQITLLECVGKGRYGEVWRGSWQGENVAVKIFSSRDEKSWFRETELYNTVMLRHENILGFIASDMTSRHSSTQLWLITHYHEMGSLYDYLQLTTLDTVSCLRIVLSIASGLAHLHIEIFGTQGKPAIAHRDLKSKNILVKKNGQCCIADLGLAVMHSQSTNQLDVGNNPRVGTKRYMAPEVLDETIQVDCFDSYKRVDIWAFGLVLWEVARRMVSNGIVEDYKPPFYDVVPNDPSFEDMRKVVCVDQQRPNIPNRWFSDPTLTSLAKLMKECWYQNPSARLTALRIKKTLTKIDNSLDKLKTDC

[3] = target: T3, Calcium/calmodulin-dependent protein kinase type IV (Homo sapiens, UniProt Q16566)
T3 sequence (Q16566 whole entry): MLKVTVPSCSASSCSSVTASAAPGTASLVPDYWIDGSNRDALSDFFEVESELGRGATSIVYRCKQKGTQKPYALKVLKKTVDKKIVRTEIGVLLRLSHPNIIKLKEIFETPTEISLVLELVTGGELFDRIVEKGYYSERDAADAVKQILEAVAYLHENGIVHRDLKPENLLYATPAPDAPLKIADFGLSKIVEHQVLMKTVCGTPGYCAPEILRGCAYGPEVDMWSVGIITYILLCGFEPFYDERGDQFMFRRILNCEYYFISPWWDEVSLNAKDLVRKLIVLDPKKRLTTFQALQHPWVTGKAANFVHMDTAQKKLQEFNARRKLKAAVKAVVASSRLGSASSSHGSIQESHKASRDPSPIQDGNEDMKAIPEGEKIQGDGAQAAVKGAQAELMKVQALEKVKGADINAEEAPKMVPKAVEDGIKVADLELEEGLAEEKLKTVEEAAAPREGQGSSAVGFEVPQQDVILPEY

[4] = target: T4, RNA cytidine acetyltransferase (Homo sapiens, UniProt Q9H0A0)
T4 sequence (Q9H0A0 whole entry): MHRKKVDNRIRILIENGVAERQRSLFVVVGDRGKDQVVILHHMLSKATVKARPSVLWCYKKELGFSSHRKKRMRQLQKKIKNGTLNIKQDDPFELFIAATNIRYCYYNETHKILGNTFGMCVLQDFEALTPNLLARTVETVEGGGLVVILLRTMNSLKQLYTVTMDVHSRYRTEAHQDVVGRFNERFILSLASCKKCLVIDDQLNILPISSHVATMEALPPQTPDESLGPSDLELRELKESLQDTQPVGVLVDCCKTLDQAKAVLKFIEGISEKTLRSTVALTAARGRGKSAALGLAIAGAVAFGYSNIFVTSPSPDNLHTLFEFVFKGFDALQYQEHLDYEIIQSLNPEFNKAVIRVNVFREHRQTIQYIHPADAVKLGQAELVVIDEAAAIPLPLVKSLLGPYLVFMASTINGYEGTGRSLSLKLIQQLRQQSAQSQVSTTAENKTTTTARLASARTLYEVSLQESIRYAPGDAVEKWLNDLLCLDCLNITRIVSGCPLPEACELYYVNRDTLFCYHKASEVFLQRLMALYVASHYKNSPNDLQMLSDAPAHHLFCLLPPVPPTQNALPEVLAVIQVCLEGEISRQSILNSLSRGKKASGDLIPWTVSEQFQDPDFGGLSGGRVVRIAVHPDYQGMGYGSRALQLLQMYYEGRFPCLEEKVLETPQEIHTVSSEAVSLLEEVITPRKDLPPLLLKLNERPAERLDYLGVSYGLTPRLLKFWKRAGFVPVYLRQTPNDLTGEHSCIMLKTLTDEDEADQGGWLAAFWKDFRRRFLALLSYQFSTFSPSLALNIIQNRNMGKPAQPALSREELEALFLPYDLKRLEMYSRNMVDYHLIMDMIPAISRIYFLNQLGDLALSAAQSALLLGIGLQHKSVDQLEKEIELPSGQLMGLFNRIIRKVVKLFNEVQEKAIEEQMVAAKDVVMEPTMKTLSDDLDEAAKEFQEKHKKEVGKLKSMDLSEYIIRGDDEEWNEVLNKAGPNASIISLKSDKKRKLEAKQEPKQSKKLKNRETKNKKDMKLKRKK

[5] = target: Calcium/calmodulin-dependent protein kinase type II subunit gamma (Homo sapiens, UniProt Q13555)
Chain of Calcium/calmodulin-dependent protein kinase type II subunit gamma (Q13555 whole entry): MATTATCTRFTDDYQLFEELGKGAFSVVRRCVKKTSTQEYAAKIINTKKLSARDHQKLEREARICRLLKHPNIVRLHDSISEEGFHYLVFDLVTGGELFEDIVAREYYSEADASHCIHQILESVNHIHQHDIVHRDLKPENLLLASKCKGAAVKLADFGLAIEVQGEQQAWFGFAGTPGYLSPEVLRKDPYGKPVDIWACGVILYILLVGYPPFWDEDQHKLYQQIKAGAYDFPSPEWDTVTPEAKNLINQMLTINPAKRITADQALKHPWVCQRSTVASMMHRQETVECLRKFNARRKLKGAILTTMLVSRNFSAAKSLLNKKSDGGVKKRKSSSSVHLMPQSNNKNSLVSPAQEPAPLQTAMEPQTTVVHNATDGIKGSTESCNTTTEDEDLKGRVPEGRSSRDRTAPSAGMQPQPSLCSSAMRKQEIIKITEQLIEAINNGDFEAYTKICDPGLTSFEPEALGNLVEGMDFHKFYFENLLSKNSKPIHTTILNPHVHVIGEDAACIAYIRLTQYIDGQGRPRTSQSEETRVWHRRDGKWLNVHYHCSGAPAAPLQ

[6] = target: Dual specificity tyrosine-phosphorylation-regulated kinase 1A (Homo sapiens, UniProt Q13627)
DNA topoisomerase 2-beta = DNA topoisomerase 2-beta (Homo sapiens, UniProt Q02880)
Chain of DNA topoisomerase 2-beta (Q02880 whole entry): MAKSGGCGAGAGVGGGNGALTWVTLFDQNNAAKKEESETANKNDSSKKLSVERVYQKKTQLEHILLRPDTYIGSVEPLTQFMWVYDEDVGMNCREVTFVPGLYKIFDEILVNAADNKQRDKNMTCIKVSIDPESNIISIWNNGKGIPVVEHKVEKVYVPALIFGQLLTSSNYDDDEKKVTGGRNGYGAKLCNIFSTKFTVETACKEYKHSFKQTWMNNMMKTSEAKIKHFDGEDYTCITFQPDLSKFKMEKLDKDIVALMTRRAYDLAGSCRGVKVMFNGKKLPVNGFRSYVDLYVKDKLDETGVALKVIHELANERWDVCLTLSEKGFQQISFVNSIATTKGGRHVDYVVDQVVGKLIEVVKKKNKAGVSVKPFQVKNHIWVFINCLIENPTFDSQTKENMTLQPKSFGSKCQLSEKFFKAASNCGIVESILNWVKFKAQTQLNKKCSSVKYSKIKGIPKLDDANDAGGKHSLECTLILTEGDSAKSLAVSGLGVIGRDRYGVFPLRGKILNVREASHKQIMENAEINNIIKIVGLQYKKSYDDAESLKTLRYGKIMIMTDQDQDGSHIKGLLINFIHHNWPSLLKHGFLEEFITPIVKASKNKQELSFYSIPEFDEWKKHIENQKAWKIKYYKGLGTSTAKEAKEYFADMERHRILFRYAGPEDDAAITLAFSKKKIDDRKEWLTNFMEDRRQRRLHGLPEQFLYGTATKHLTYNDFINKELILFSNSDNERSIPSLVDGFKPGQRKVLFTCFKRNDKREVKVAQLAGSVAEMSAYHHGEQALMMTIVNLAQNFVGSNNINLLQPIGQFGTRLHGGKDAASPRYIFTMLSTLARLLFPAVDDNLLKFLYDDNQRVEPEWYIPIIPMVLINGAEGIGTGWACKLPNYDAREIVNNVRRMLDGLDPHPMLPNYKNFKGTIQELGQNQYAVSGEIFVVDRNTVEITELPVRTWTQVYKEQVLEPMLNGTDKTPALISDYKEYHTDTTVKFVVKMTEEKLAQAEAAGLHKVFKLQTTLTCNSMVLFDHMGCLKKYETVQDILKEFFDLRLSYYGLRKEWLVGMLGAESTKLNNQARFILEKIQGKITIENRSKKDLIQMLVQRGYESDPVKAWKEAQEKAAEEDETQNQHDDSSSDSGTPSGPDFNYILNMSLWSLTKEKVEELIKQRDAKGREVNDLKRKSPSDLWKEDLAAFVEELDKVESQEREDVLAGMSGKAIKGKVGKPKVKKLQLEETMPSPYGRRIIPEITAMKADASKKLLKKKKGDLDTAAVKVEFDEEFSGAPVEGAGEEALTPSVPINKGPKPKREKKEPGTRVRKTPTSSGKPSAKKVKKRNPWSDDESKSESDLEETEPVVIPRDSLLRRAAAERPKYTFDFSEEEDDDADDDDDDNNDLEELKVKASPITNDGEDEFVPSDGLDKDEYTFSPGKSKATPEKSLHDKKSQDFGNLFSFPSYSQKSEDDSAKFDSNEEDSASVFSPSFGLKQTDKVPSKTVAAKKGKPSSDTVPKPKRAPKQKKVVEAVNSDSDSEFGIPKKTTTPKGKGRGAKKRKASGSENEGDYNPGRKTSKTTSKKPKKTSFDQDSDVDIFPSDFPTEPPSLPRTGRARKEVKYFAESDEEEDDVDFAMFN

[7] = target: Elongation factor Tu, mitochondrial (Homo sapiens, UniProt P49411)
[8] = target: cAMP-dependent protein kinase catalytic subunit alpha (Homo sapiens, UniProt P17612)
Also: in the data inactive means no Kd found up to 30 µM.

Compound | Kd [1] | Kd [2] | Kd (Activin receptor type-1) | Kd [3] | Kd [4] | Kd [5] | Kd [6] | Kd (DNA topoisomerase 2-beta) | Kd [7] | Kd [8]
Cn1c(=O)c(F)c(Nc2ccc(I)cc2F)c2c(=O)n(C[C@@H](O)CO)cnc21 [TAK-733] | > 30 µM (inactive) | > 30 µM (inactive) | > 30 µM (inactive) | > 30 µM (inactive) | > 30 µM (inactive) | > 30 µM (inactive) | > 30 µM (inactive) | > 30 µM (inactive) | > 30 µM (inactive) | > 30 µM (inactive)
COc1cc2ncnc3c2cc1OCCCCCN(C)Cc1ccc(Br)cc1N3 [JNJ-26483327] | > 30 µM (inactive) | > 30 µM (inactive) | > 30 µM (inactive) | > 30 µM (inactive) | > 30 µM (inactive) | > 30 µM (inactive) | > 30 µM (inactive) | > 30 µM (inactive) | > 30 µM (inactive) | > 30 µM (inactive)
COc1cc2ncnc(Nc3ccc(F)c(Cl)c3)c2cc1NC(=O)/C=C/CN1CCCCC1 [DACOMITINIB ANHYDROUS] | > 30 µM (inactive) | > 30 µM (inactive) | > 30 µM (inactive) | > 30 µM (inactive) | > 30 µM (inactive) | > 30 µM (inactive) | > 30 µM (inactive) | > 30 µM (inactive) | > 30 µM (inactive) | > 30 µM (inactive)
C#Cc1cccc(Nc2ncnc3cc4c(cc23)OCCOCCOCCO4)c1 [ICOTINIB] | > 30 µM (inactive) | 1.05 µM (active) | > 30 µM (inactive) | > 30 µM (inactive) | > 30 µM (inactive) | > 30 µM (inactive) | > 30 µM (inactive) | > 30 µM (inactive) | > 30 µM (inactive) | > 30 µM (inactive)
Cc1cc(C(=O)Nc2cc(Oc3ccc4nc(NC(=O)C5CC5)cn4n3)ccc2C)n(C)n1 [TAK-593] | > 30 µM (inactive) | > 30 µM (inactive) | > 30 µM (inactive) | > 30 µM (inactive) | > 30 µM (inactive) | > 30 µM (inactive) | > 30 µM (inactive) | > 30 µM (inactive) | > 30 µM (inactive) | > 30 µM (inactive)
COc1cc2ncnc(Nc3ccc(O)cc3)c2cc1OC [WHI-P131] | > 30 µM (inactive) | 4.37 µM (active) | > 30 µM (inactive) | > 30 µM (inactive) | > 30 µM (inactive) | > 30 µM (inactive) | > 30 µM (inactive) | > 30 µM (inactive) | > 30 µM (inactive) | > 30 µM (inactive)
O[C@H]1CC[C@H](Nc2ncc3nc(Nc4c(F)cc(F)cc4F)n([C@H]4CCOC4)c3n2)CC1 [TANZISERTIB] | > 30 µM (inactive) | > 30 µM (inactive) | > 30 µM (inactive) | > 30 µM (inactive) | > 30 µM (inactive) | > 30 µM (inactive) | > 30 µM (inactive) | > 30 µM (inactive) | > 30 µM (inactive) | > 30 µM (inactive)
S=C(NCc1ccc2c(c1)OCO2)N1CCN(c2ncnc3c2oc2ccccc23)CC1 [AMUVATINIB] | > 30 µM (inactive) | > 30 µM (inactive) | > 30 µM (inactive) |  | > 30 µM (inactive) | > 30 µM (inactive) | > 30 µM (inactive) | > 30 µM (inactive) | > 30 µM (inactive) | > 30 µM (inactive)
CN1CCN(c2nc(C3=C(c4c[nH]c5ccccc45)C(=O)NC3=O)c3ccccc3n2)CC1 [SOTRASTAURIN] | > 30 µM (inactive) | > 30 µM (inactive) | > 30 µM (inactive) | > 30 µM (inactive) | > 30 µM (inactive) | > 30 µM (inactive) | > 30 µM (inactive) | > 30 µM (inactive) | > 30 µM (inactive) | > 30 µM (inactive)
CCOc1ccn(-c2ccc(F)cc2)c(=O)c1C(=O)Nc1ccc(Oc2ccnc(N)c2Cl)c(F)c1 [BMS-777607] |  | > 30 µM (inactive) | > 30 µM (inactive) | > 30 µM (inactive) | > 30 µM (inactive) |  | > 30 µM (inactive) | > 30 µM (inactive) | > 30 µM (inactive) | > 30 µM (inactive)
CC1(COc2ccc3c(c2)ncn3-c2ccc3cccc(N4CCC(N)CC4)c3n2)COC1 [CRENOLANIB] | > 30 µM (inactive) | > 30 µM (inactive) | > 30 µM (inactive) | > 30 µM (inactive) | > 30 µM (inactive) | 0.766 µM (active) | 4.97 µM (active) | > 30 µM (inactive) | > 30 µM (inactive) | > 30 µM (inactive)
CNC(=O)c1cc(COc2nnc(Nc3ccc(Cl)cc3)c3ccoc23)ccn1 [TELATINIB] | > 30 µM (inactive) | > 30 µM (inactive) | > 30 µM (inactive) | > 30 µM (inactive) | > 30 µM (inactive) | > 30 µM (inactive) | > 30 µM (inactive) | > 30 µM (inactive) | > 30 µM (inactive) | > 30 µM (inactive)
COc1cccc(Nc2ncnn3ccc(CN4CC[C@@H](N)[C@H](O)C4)c23)c1 [BMS-690514] | > 30 µM (inactive) |  | > 30 µM (inactive) | > 30 µM (inactive) | > 30 µM (inactive) | 0.738 µM (active) | 3.29 µM (active) | > 30 µM (inactive) | > 30 µM (inactive) | 0.916 µM (active)
O=S(=O)(c1cccc2c(O)nccc12)N1CCCNCC1 [HYDROXYFASUDIL] | > 30 µM (inactive) | > 30 µM (inactive) | > 30 µM (inactive) | > 30 µM (inactive) | > 30 µM (inactive) | > 30 µM (inactive) | > 30 µM (inactive) | > 30 µM (inactive) | > 30 µM (inactive) | 
